Key:
[1] = tested on: JJN-3 (NIK translocated) multiple myeloma cells; test: Antiproliferative activity on JJN-3 multiple myeloma cells (CellTiter-Glo); format: cell-based, human; conditions: Homo sapiens, JJN-3, 96 h, JJN-3 (NIK translocated) cells, 96 hr treatment, averaged values, read-out: JJN-3 Proliferation inhibition (IC50 (nM))
Summary of the method: (§1)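 Cells plated at 15000 (JJN3) or 20000 (KMS12BM) per well and treated 96 h at 37° C, 5% CO2, final DMSO 0.3%, 9-point 1:3 dilutions. Viability by CellTiter-Glo luminescence; time-zero blank subtracted, growth expressed as percent of untreated control.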

[2] = biological target: recombinant human NF-kappaB-inducing Kinase (NIK/MAP3K14) (Homo sapiens, UniProt Q99558); test: Inhibition of auto-phosphorylation of recombinant human NIK/MAP3K14 activity (AlphaScreen); format: biochemical; conditions: 25 microM ATP, averaged over all measurements on all batches
recombinant human NF-kappaB-inducing Kinase (NIK/MAP3K14), sequence (Q99558 whole entry): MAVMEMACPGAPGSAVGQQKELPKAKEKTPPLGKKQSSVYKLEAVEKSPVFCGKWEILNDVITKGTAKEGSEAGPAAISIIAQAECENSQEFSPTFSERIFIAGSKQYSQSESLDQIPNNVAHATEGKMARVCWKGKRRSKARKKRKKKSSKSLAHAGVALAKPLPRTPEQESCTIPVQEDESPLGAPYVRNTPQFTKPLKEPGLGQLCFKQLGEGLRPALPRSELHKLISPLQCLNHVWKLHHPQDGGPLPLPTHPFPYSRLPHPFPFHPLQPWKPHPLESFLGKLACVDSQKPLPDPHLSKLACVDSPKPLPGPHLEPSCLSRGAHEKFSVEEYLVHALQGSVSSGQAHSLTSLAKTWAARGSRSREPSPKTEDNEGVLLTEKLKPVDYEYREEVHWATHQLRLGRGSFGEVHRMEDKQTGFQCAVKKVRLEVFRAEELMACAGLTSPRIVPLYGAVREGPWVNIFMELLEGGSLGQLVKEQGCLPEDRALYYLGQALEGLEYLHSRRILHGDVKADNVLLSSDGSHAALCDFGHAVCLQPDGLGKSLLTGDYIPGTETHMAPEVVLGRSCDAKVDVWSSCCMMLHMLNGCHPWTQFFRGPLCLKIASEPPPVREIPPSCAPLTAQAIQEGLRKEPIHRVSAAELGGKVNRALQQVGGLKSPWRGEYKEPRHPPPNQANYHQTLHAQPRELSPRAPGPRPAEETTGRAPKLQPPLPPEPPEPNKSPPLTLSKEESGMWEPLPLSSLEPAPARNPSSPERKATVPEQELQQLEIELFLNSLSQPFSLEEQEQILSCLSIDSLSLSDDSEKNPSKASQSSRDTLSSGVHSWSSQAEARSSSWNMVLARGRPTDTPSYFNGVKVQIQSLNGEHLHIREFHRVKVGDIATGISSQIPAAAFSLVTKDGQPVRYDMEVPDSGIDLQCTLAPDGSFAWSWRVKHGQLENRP

[3] = tested on: P-IKKα levels in L363 (NIK translocated multiple myeloma) cells; test: Effect of compounds on P-IKKα levels in L363 cells (Mesoscale sandwich immuno-assay); format: cell-based, human; conditions: Homo sapiens, L-363, 2 h, 2 hr treatment, averaged values, read-out: Inhibition of pIKKα_L-363 (IC50 (nM))
Method: Effect of Compounds on P-IKKα Levels in L363 (NIK Translocated Multiple Myeloma) Cells
All compounds tested were dissolved in DMSO and further dilutions were made in culture medium. Final DMSO concentration was 1% (v/v) in cell assays. The human L363 cells (ATCC) were cultured in RPMI 1640 medium supplemented with GlutaMax and 10% fetal calf serum (PAA). Cells were routinely maintained at densities of 0.2×10^6 cells per ml-1×10^6 cells per ml at 37° C. in a humidified 5% CO2 atmosphere. Cells were passaged twice a week splitting back to obtain the low density. Cells were seeded in 96 well plates (Nunc 167008) at 2×10^6 per ml media in a volume of 75 μl per well plus 25 μl 1 μg/ml recombinant human B-cell activating factor (BAFF/BLyS/TNFSF13B). Seeded cells were incubated at 37° C. in a humidified 5% CO2 atmosphere for 24 hr. Drugs and/or solvents were added (20 μl) to a final volume of 120 μl. Following 2 hr treatment plates were removed from the incubator and cell lysis was achieved by the addition of 30 μl 5× lysis buffer followed by shaking on a plate shaker at 4° C. for 10 min. At the end of this incubation lysed cells were centrifuged at 800×g for 20 min at 4° C. and the lysate was assessed for P-IKK levels by sandwich immuno-assay carried out in anti-rabbit antibody coated Mesoscale plates. Within an experiment, the results for each treatment were the mean of 2 replicate wells. For initial screening purposes, compounds were tested using an 8 point dilution curve (serial 1:3 dilutions). […] The blank incubation value was subtracted from all control and sample values. To determine the IC50 a sigmoidal curve was fitted to the plot of % inhibition of control P-IKKα levels versus Log10 compound concentration.

[4] = tested on: KMS12-BM (NIK WT) multiple myeloma cells; test: Antiproliferative activity on KMS12-BM multiple myeloma cells (CellTiter-Glo); format: cell-based, human; conditions: Homo sapiens, KMS-12-BM, 96 h, 96 hr treatment, averaged values, read-out: KMS-12 Proliferation inhibition (IC50 (nM))
Summary of the method: as §1

Compound	IC50 [1] [nM]	IC50 [2] [nM]	IC50 [3] [nM]	IC50 [4] [nM]	melting point [°C]
COc1ncccc1Nc1nccc(-c2cc(C#N)c3c(c2)C(C)(C)CN3)n1 [Compound 97]	1820	9.8	42.7	> 10000	–
COc1nc(N(C)C)c(Cl)cc1Nc1nccc(-c2cc(C#N)c3c(c2)C(C)(C)CN3)n1 [Compound 99]	708	123	275	> 10000	–
Cc1nc(P(C)(C)=O)c(Cl)cc1Nc1nccc(-c2cc(C#N)c3c(c2)[C@@](C)(CO)CN3)n1 [Compound 90]	5890	1.9	32.4	> 10000	–
CNC(=O)c1ncc(Cl)cc1Nc1nccc(-c2cc(C#N)c3c(c2)C(C)(CO)CN3)n1 (centres unmarked) [Compound 178]	–	18.2	51.3	–	–
COCCNc1nc(OC)c(Nc2nccc(-c3cc(C#N)c4c(c3)C(C)(C)CN4)n2)cc1Cl [Compound 98]	832	50.1	45.7	> 10000	–
C[C@]1(CO)CNc2c(C#N)cc(-c3ccnc(Nc4cc(C#N)cnc4OC4CC4)n3)cc21 [Compound 85]	372	2.5	3	> 10000	–
Cc1cc(Nc2ncnc(-c3cc(C#N)c4c(c3)[C@@](C)(CO)CN4)n2)c(=O)n(C)c1 [Compound 30i]	–	4.6	14.5	–	276
CNC(=O)c1cnc(CCC2CC2)c(Nc2nccc(-c3cc(C#N)c4c(c3)[C@@](C)(CO)CN4)n2)c1 [Compound 87]	427	3.8	27.5	> 10000	–
Cc1cnc(CCC2CC2)c(Nc2nccc(-c3cc(C#N)c4c(c3)[C@@](C)(CO)CN4)n2)c1 [Compound 68]	98	3.9	~20	5130	–
COc1ncccc1Nc1nccc(-c2cc(C#N)c3c(c2)C(C)(CO)CN3)n1 (centres unmarked) [Compound 1]	79	–	81.3	~2690	–
Cc1ncc(C(=O)N2CCN(C)CC2)cc1Nc1nccc(-c2cc(C#N)c3c(c2)[C@@](C)(CO)CN3)n1 [Compound 166]	–	25.7	229	–	150
Cc1cc(Nc2nccc(-c3cc(C#N)c4c(c3)[C@@](C)(CO)CN4)n2)c(C)nc1OC1CCOCC1 [Compound 174]	–	6.5	4	–	199
COCCOc1nc(C2CCOCC2)ncc1Nc1nccc(-c2cc(C#N)c3c(c2)[C@@](C)(CO)CN3)n1 [Compound 141]	741	18.6	355	4790	–
COCCCc1ccc(Nc2nccc(-c3cc(C#N)c4c(c3)[C@@](C)(CO)CN4)n2)c(OC)n1 [Compound 58]	200	6.9	~17	> 10000	–
COc1nc(CC(C)C)c(Nc2nccc(-c3cc(C#N)c4c(c3)[C@@](C)(CO)CN4)n2)cc1C [Compound 161]	417	28.2	46.8	> 10000	–
CN1CCC(c2cc(Nc3nccc(-c4cc(C#N)c5c(c4)[C@@](C)(CO)CN5)n3)c(=O)n(CC3CC3)c2)CC1 [Compound 21i]	–	64.6	550	–	–
CNC(=O)c1cc(Nc2nccc(-c3cc(C#N)c4c(c3)[C@@](C)(CO)CN4)n2)c(=O)n(CC2CC2)c1 [Compound 25i]	120	1.7	9.5	> 10000	–
COc1ncccc1Nc1ncnc(-c2cc(C#N)c3c(c2)[C@@](C)(CO)CN3)n1 [Compound 181]	–	5.2	25.1	–	–

From patent US11001569B2, “6-membered heteroaromatic substituted cyanoindoline derivatives as NIK inhibitors” (Janssen Pharmaceutica NV, priority 2016, dated 2021)
